# Source: ChEMBL document CHEMBL6182943, “Identification of 4'-Thiouridine as an Orally Available Antiviral Agent Targeting Both RdRp and NiRAN Functions of SARS-CoV-2 Nsp12” (J Med Chem, 2025)
# Calls of active or inactive are those of the source. No cut-off for these calls is given here.
# Legend:
# [1] = AUClast in male ICR mouse at 10 mg/kg, po measured after 24 hrs by LC-MS/MS analysis; type: ADME, organism-based; settings: in vivo
# [2] = AUCinfinity in male ICR mouse at 5 mg/kg, iv measured after 24 hrs by LC-MS/MS analysis; type: ADME, organism-based; settings: in vivo
# [3] = Cytotoxicity against African green monkey Vero cells assessed as reduction in cell viability incubated for 48 hrs by MTT assay; type: toxicity, cell-based; settings: chlorocebus sabaeus
# Zaire ebolavirus = test: Antiviral activity against Zaire Ebola virus infected in HEK293T cells transfected with viral replication protein and Renilla luciferase pre-infected for 4 hrs followed by compound addition and measured after 48 hrs by Dual-luciferase reporter assay; type: functional, organism-based; settings: HEK-293T
# Influenza B virus = test: Antiviral activity against Influenza B virus B/Lee/40 infected in MDCK cells assessed as reduction in virus-induced cytopathic effect incubated for 3 days in presence of TPCK-treated trypsin by MTT assay; type: functional, organism-based; settings: B/Lee/40, MDCK, 72 h
# [4] = MRTinfinity in male ICR mouse at 5 mg/kg, iv measured after 24 hrs by LC-MS/MS analysis; type: ADME, organism-based; settings: in vivo
# [5] = Cytotoxicity against MDCK cells assessed as reduction in cell viability incubated for 3 days by MTT assay; type: toxicity, cell-based, Canis lupus familiaris; settings: dog, time 3 day
# SARS-CoV-2 [6] = test: Antiviral activity against SARS-CoV-2 Delta (hCoV-19/Korea/KDCA119861/2021) infected in human Calu-3 cells assessed as reduction in number of spike-protein expressing cells pre-infected for 30 mins followed by compound addition and measured 48 hrs post-infection by DAPI staining based immunofluorescence analysis relative to control; type: functional, organism-based; settings: Severe acute respiratory syndrome coronavirus 2, Delta (hCoV-19/Korea/KDCA119861/2021)
# [7] = Cytotoxicity against human Huh-7 cells assessed as reduction in cell viability by MTT-based cell viability assay; type: toxicity
# [8] = Cytotoxicity against human Calu-3 cells assessed as reduction in cell viability incubated for 48 hrs by MTT assay; type: toxicity, cell-based
# [9] = MRTlast in male ICR mouse at 10 mg/kg, po measured after 24 hrs by LC-MS/MS analysis; type: ADME, organism-based; settings: in vivo
# [10] = Cmax in male ICR mouse at 10 mg/kg, po measured after 24 hrs by LC-MS/MS analysis; type: ADME, organism-based; settings: in vivo
# [11] = Terminal half-life in male ICR mouse at 10 mg/kg, po measured after 24 hrs by LC-MS/MS analysis; type: ADME, organism-based; settings: in vivo, read-out: beta t1/2 (converted)
# SARS-CoV-2 [12] = test: Antiviral activity against SARS-CoV-2 infected in hACE2 expressing female B6.Cg-Tg(K18-ACE2)2Prlmn/J mouse model assessed as reduction in body weight loss at 50 mg/kg, po preadministered twice daily for 4 days at 8 hrs interval with four hours before and after viral challenge and measured 14 days post viral challenge; type: functional, organism-based; settings: Severe acute respiratory syndrome coronavirus 2, time 14.0 day
# SARS-CoV-2 [13] = test: Antiviral activity against SARS-CoV-2 infected in african green monkey Vero cells assessed as nuclear occupancy at 30 uM pre-infected for 30 mins followed by compound addition and measured 48 hrs post-infection by DAPI staining based immunofluorescence analysis relative to control; type: functional, Severe acute respiratory syndrome coronavirus 2; settings: time 47.5 hrs
# SARS-CoV-2 [14] = test: Antiviral activity against SARS-CoV-2 infected in African green monkey Vero cells assessed as reduction in viral N protein level at 1 to 10 uM measured after 1 day by Western blot analysis relative to control; type: functional, Severe acute respiratory syndrome coronavirus 2; design: scale not given: the % may be the effect or the level left; settings: dose 1-10 µM
# [15] = Tmax in male ICR mouse at 10 mg/kg, po measured after 24 hrs by LC-MS/MS analysis; type: ADME, organism-based; settings: in vivo
# SARS-CoV-2 [16] = test: Antiviral activity against SARS-CoV-2 infected in African green monkey Vero cells assessed as reduction in viral RNA copy number at 0.1 to 10 uM measured after 1 day by qRT-PCR analysis; type: functional, organism-based; settings: Severe acute respiratory syndrome coronavirus 2, dose 0.1-10 µM
# dengue virus type 2 = test: Antiviral activity against Dengue virus 2 infected in BHK-21 cells transfected with Renilla luciferase tagged viral subgenomic replicon incubated for 48 hrs by luciferase based assay; type: functional, organism-based; settings: BHK-21, 48 h
# rhinovirus B14 = test: Antiviral activity against Human rhinovirus B14 infected in human H1-HeLa cells incubated for 72 hrs; type: functional, organism-based; settings: Rhinovirus B
# [17] = AUCinfinity in male ICR mouse at 10 mg/kg, po measured after 24 hrs by LC-MS/MS analysis; type: ADME, organism-based; settings: in vivo
# SARS-CoV-2 [18] = test: Antiviral activity against SARS-CoV-2 infected in hACE2 expressing female B6.Cg-Tg(K18-ACE2)2Prlmn/J mouse model assessed as survival rate at 100 mg/kg, po preadministered twice daily for 4 days at 8 hrs interval with four hours before and after viral challenge and measured 14 days post viral challenge relative to control; type: functional; settings: Severe acute respiratory syndrome coronavirus 2, 336 h, time 14 day
# SARS-CoV-2 [19] = test: Antiviral activity against SARS-CoV-2 infected in african green monkey Vero cells assessed as reduction in number of spike-protein expressing cells pre-infected for 30 mins followed by compound addition and measured 48 hrs post-infection by DAPI staining based immunofluorescence analysis; type: functional, organism-based; settings: Severe acute respiratory syndrome coronavirus 2, Vero
# SARS-CoV-2 [20] = test: Antiviral activity against SARS-CoV-2 infected in african green monkey Vero cells assessed as reduction in number of spike-protein expressing cells at 30 uM pre-infected for 30 mins followed by compound addition and measured 48 hrs post-infection by DAPI staining based immunofluorescence analysis relative to control; type: functional, Severe acute respiratory syndrome coronavirus 2; design: scale not given: the % may be the effect or the level left; settings: time 47.5 hrs
# Influenza A virus (H1N1) = test: Antiviral activity against Influenza A virus A/Puerto Rico/8/34 (H1N1) infected in MDCK cells assessed as reduction in virus-induced cytopathic effect incubated for 3 days in presence of TPCK-treated trypsin by MTT assay; type: functional, organism-based; settings: 72 h
# SARS-CoV-2 [21] = test: Antiviral activity against SARS-CoV-2 infected in hACE2 expressing female B6.Cg-Tg(K18-ACE2)2Prlmn/J mouse model assessed as reduction in body weight loss at 100 mg/kg, po preadministered twice daily for 4 days at 8 hrs interval with four hours before and after viral challenge and measured 14 days post viral challenge; type: functional, organism-based; settings: Severe acute respiratory syndrome coronavirus 2, time 14.0 day
# [22] = Terminal half-life in male ICR mouse at 5 mg/kg, iv measured after 24 hrs by LC-MS/MS analysis; type: ADME, organism-based; settings: in vivo, read-out: beta t1/2 (converted)
# SARS-CoV-2 [23] = test: Antiviral activity against SARS-CoV-2 Omicron (hCoV-19/Korea/KDCA447321/2021) infected in human Calu-3 cells assessed as reduction in number of spike-protein expressing cells pre-infected for 30 mins followed by compound addition and measured 48 hrs post-infection by DAPI staining based immunofluorescence analysis relative to control; type: functional, organism-based; settings: Severe acute respiratory syndrome coronavirus 2, Omicron (hCoV-19/Korea/KDCA447321/2021)
# Human coronavirus NL63 = test: Antiviral activity against HCoV-NL63 infected in LLC-MK2 cells assessed as inhibition of virus-induced cytopathic effect measured 2 to 7 days post infection by MTT-based cell viability assay; type: functional, organism-based
# SARS-CoV-2 [24] = test: Antiviral activity against SARS-CoV-2 Gamma (hCoV-19/Korea95637/KDCA/2021) infected in human Calu-3 cells assessed as reduction in number of spike-protein expressing cells pre-infected for 30 mins followed by compound addition and measured 48 hrs post-infection by DAPI staining based immunofluorescence analysis relative to control; type: functional, organism-based; settings: Severe acute respiratory syndrome coronavirus 2, Gamma (hCoV-19/Korea95637/KDCA/2021)
# [25] = MRTlast in male ICR mouse at 5 mg/kg, iv measured after 24 hrs by LC-MS/MS analysis; type: ADME, organism-based; settings: in vivo
smiles,measurement,setting,value
O=c1ccn([C@@H]2S[C@H](CO)[C@@H](O)[C@H]2O)c(=O)[nH]1,AUC(0-t) at 24 h,[1],38000 ng·h/mL
same,AUC(0-inf),[2],20500 ng·h/mL
same,CC50 at 48 h,[3],> 100 µM
same,EC50,Zaire ebolavirus,33 µM
same,EC50,Influenza B virus,20.4 µM
same,MRT inf,[4],11.4 h
same,CC50 at 72 h,[5],> 100 µM
same,EC50,SARS-CoV-2 [6],7.6 µM
same,CC50,[7],> 100 µM
same,CC50 at 48 h,[8],> 100 µM
same,MRT last at 24 h,[9],6.84 h
same,Cmax,[10],4980 ng/mL
same,half-life,[11],8.2 h
same,Activity,SARS-CoV-2 [12],inactive
same,Activity,SARS-CoV-2 [13],>80%
same,Activity,SARS-CoV-2 [14],100%
same,Tmax,[15],1 h
same,Activity,SARS-CoV-2 [16],Active
same,EC50,dengue virus type 2,42 µM
same,EC50,rhinovirus B14,23.7 µM
same,AUC(0-inf),[17],43600 ng·h/mL
same,survival at 100 mg/kg,SARS-CoV-2 [18],40%
same,EC50,SARS-CoV-2 [19],1.71 µM
same,Activity,SARS-CoV-2 [20],>80%
same,EC50,Influenza A virus (H1N1),13.4 µM
same,Activity,SARS-CoV-2 [21],Active
same,half-life,[22],8.87 h
same,EC50,SARS-CoV-2 [23],2.66 µM
same,EC50,Human coronavirus NL63,4.53 µM
same,EC50,SARS-CoV-2 [24],3.48 µM
same,MRT last at 24 h,[25],7.16 h
